Where a name gives a salt, the structure may show the parent alone. Read-outs that look alike come from different tables or passages of the source.
Test system: Acinetobacter baumannii ATCC 17978
Experiment: Antimicrobial susceptibility testing: 90% growth inhibitory concentration (IC90) determination
Type: cell-based
Settings: 90% growth inhibitory concentration, Acinetobacter baumannii ATCC17978, Iso-Sensitest broth, OD 600 nm over 16h, read-out: ATCC17978 IC90
Method: Antimicrobial Susceptibility Testing:
90% Growth Inhibitory Concentration (IC90) Determination
The in vitro antimicrobial activity of the compounds was determined according to the following procedure:
The assay used a 10-points Iso-Sensitest broth medium to measure quantitatively the in vitro activity of the compounds against Acinetobacter baumannii ATCC 17978 and Acinetobacter baumannii ATCC 17961.
Stock compounds in DMSO were serially twofold diluted (e.g. range from 50 to 0.097 μM final concentration) in 384 wells microtiter plates and inoculated with 49 μl the bacterial suspension in Iso-Sensitest medium to have a final cell concentration of ˜5×10^(5) CFU/ml in a final volume/well of 50 ul/well. Microtiter plates were incubated at 35±2° C.
Bacterial cell growth was determined with the measurement of optical density at λ=600 nm each 20 minutes over a time course of 16h. Growth inhibition was calculated during the logarithmic growth of the bacterial cells with determination of the concentration inhibiting 50% (IC50) and 90% (IC90) of the growth.
Table 1 provides the 90% growth inhibitory concentrations (IC90) in micromoles per liter of the compounds of present invention obtained against the strain Acinetobacter baumannii ATCC17978 and Acinetobacter baumannii ATCC17961.

[1] = Acinetobacter baumannii, ATCC17978, 16 h

Row | Compound | IC90 [nM] | IC90 [1] [nM]
1 | 4-((3-(4- (difluoromethoxy) phenyl)imidazo[1,2- a]pyrazin-8- yl)amino)-N-methyl- 2- (trifluoromethyl) benzamide [Example 53] | 240 | –
2 | CCc1cc(Nc2nccn3c(-c4ccc(OC)c(F)c4F)cnc23)ccc1C(=O)NCCCNC(=O)C(CNC(=N)N)NC(=O)[C@@H](N)CCC(=O)O (mixture of isomers) [Example 155, (4S)-4-Amino-5-((1-((3-(4-((3-(2,3-difluoro-4-methoxyphenyl)imidazo[1,2-a]pyrazin-8-yl)amino)-2-ethylbenzamido)propyl)amino)-3-guanidino-1-oxopropan-2-yl)amino)-5-oxopentanoic acid trihydrochloride (Epimers 1:1)] | – | 340
3 | CCc1cc(Nc2nccn3c(-c4ccc(OC)c(F)c4F)cnc23)ccc1C(=O)NCC(O)CNC(=O)[C@@H](N)CN (mixture of isomers) [Example 415, N-[3-[[(2S)-2,3-diaminopropanoyl]amino]-2-hydroxypropyl]-4-[[3-(2,3-difluoro-4-methoxyphenyl)imidazo[1,2-a]pyrazin-8-yl]amino]-2-ethylbenzamide;dihydrochlo-ride] | – | 520
4 | CCc1cc(Nc2nccn3c(-c4ccc(OC)c(F)c4F)cnc23)ccc1C(=O)NCCNC(=O)C(CNC(=N)N)NC(=O)[C@@H](N)CCC(=O)O (mixture of isomers) [Example 461, (4S)-4-amino-5-((1-((2-(4-((3-(2,3-difluoro-4-methoxyphenyl)imidazo[1,2-a]pyrazin-8-yl)amino)-2-ethylbenzamido)ethyl)amino)-3-guanidino-1-oxopropan-2-yl)amino)-5-oxopentanoic acid trihydrochloride] | – | 480
5 | CCc1cc(Nc2nccn3c(-c4ccc(OC)c(F)c4F)cnc23)ccc1C(=O)NCC(C)CNC(=O)[C@@H](N)CCNC(=N)N (mixture of isomers) [Example 401, rac-N-(3-((R)-2-amino-4-guanidinobutanamido)-2-methylpropyl)-4-((3-(2,3-difluoro-4-methoxyphenyl)imidazo[1,2-a]pyrazin-8-yl)amino)-2-ethylbenzamide diformate] | – | 220
6 | CCc1cc(Nc2nccn3c(-c4ccc(OC)c(F)c4F)cnc23)ccc1C(=O)NCC(O)CNC(=O)[C@@H](N)CCCNC(=N)N (mixture of isomers) [Example 405, rac-N-(3-((R)-2-amino-5-guanidinopentanamido)-2-hydroxypropyl)-4-((3-(2,3-difluoro-4-methoxyphenyl)imidazo[1,2-a]pyrazin-8-yl)amino)-2-ethylbenzamide diformate] | 360 | –
7 | CCc1cc(Nc2nccn3c(-c4ccc(OC)c(F)c4F)cnc23)ccc1C(=O)NCC(C)CNC(=O)[C@@H](N)CCCNC(=N)N (mixture of isomers) [Example 406, rac-N-(3-((R)-2-amino-5-guanidinopentanamido)-2-methylpropyl)-4-((3-(2,3-difluoro-4-methoxyphenyl)imidazo[1,2-a]pyrazin-8-yl)amino)-2-ethylbenzamide diformate] | 240 | –
8 | CCc1cc(Nc2nccn3c(-c4ccc(OC)c(F)c4F)cnc23)ccc1C(=O)NCC(C)CNC(=O)[C@@H](N)CNC(=N)N (mixture of isomers) [Example 408, rac-N-(3-((R)-2-amino-3-guanidinopropanamido)-2-methylpropyl)-4-((3-(2,3-difluoro-4-methoxyphenyl)imidazo[1,2-a]pyrazin-8-yl)amino)-2-ethylbenzamide diformate] | – | 410
9 | CCc1cc(Nc2nccn3c(-c4ccc(OC)c(F)c4F)cnc23)ccc1C(=O)NCC(O)CNC(=O)[C@@H](N)CCCCN (mixture of isomers) [Example 412, rac-N-(3-((R)-2,6-diaminohexanamido)-2-hydroxypropyl)-4-((3-(2,3-difluoro-4-methoxyphenyl)imidazo[1,2-a]pyrazin-8-yl)amino)-2-ethylbenzamide dihydrochloride] | – | 770
10 | CCc1cc(Nc2nccn3c(-c4ccc(OC)c(F)c4F)cnc23)ccc1C(=O)NCC(O)CNC(=O)[C@@H](N)CCCN (mixture of isomers) [Example 413, rac-N-(3-((R)-2,5-diaminopentanamido)-2-hydroxypropyl)-4-((3-(2,3-difluoro-4-methoxyphenyl)imidazo[1,2-a]pyrazin-8-yl)amino)-2-ethylbenzamide dihydrochloride] | – | 470
11 | CCc1cc(Nc2nccn3c(-c4ccc(OC)c(F)c4F)cnc23)ccc1C(=O)NCC(O)CNC(=O)[C@@H](N)CCN (mixture of isomers) [Example 414, rac-N-(3-((R)-2,4-diaminobutanamido)-2-hydroxypropyl)-4-((3-(2,3-difluoro-4-methoxyphenyl)imidazo[1,2-a]pyrazin-8-yl)amino)-2-ethylbenzamide dihydrochloride] | – | 390
12 | CCc1cc(Nc2nccn3c(-c4ccc(OC)c(F)c4F)cnc23)ccc1C(=O)NCC(O)CNC(=O)[C@@H](N)CCNC(=N)N (mixture of isomers) [Example 416, rac-N-(3-((R)-2-amino-4-guanidinobutanamido)-2-hydroxypropyl)-4-((3-(2,3-difluoro-4-methoxyphenyl)imidazo[1,2-a]pyrazin-8-yl)amino)-2-ethylbenzamide diformate] | – | 240
13 | CCc1cc(Nc2nccn3c(-c4ccc(OCc5cc[nH]n5)c(F)c4F)cnc23)ccc1C(=O)N[C@@H](C)CN (racemic) [Example 485, rac-(R)-4-((3-(4-((1H-pyrazol-3-yl)methoxy)-2,3-difluorophenyl)imidazo[1,2-a]pyrazin-8-yl)amino)-N-(1-aminopropan-2-yl)-2-ethylbenzamide] | – | 800
14 | CCc1cc(Nc2nccn3c(-c4ccc(OC(F)F)c(F)c4F)cnc23)ccc1C(=O)N[C@@H](C)CNC(=O)C1CCNCC1 (racemic) [Example 552, rac-(R)-N-(2-(4-((3-(4-(difluoromethoxy)-2,3-difluorophenyl)imidazo[1,2-a]pyrazin-8-yl)amino)-2-ethylbenzamido)propyl)piper-idine-4-carboxamide formate] | – | 210
15 | CCc1cc(Nc2nccn3c(-c4ccc(OC(F)F)c(F)c4F)cnc23)ccc1C(=O)N[C@@H](C)CNC(=O)C1CCN(CC2CNC2)CC1 (racemic) [Example 553, rac-(R)-1-(azetidin-3-ylmethyl)-N-(2-(4-((3-(4-(difluoromethoxy)-2,3-difluorophenyl)imidazo[1,2-a]pyrazin-8-yl)amino)-2-ethylbenzamido)propyl)piper-idine-4-carboxamide formate] | – | 260
16 | COc1ccc(-c2cnc3c(Nc4ccc(C(=O)N(C)C)c(C)c4)nccn23)c(F)c1F [Example 1, 4-((3-(2,3-difluoro-4-methoxyphenyl)imidazo[1,2-a]pyrazin-8-yl)amino)-N,N,2-trimethylbenzamide] | – | 120
17 | COc1ccc(-c2cnc3c(Nc4ccc(C(=O)NCCCN5CCNC(C(=O)O)C5)c(C)c4)nccn23)cc1F (stereo not shown) [Example 2, 4-(3-(4-((3-(3-fluoro-4-methoxyphenyl)imidazo [1,2-a]pyrazin-8-yl)amino)-2-methylbenzamido)propyl) piperazine-2-carboxylic acid] | – | 4600
18 | COc1ccc(-c2cnc3c(Nc4ccc(C(=O)N(C)CCC(=O)N5CCNCC5)c(C)c4)nccn23)cc1F [Example 3, 4-[[3-(3-fluoro-4-methoxy-phenyl)imidazo[1,2-a]pyrazin-8-yl]amino]-N,2-dimethyl-N-(3-oxo-3-piperazin-1-yl-propyl)benzamide] | – | 210
19 | COc1ccc(-c2cnc3c(Nc4ccc(C(=O)N(C)CCCC(=O)N5CCNCC5)c(C)c4)nccn23)cc1F [Example 4, 4-[[3-(3-fluoro-4-methoxy-phenyl)imidazo[1,2-a]pyrazin-8-yl]amino]-N,2-dimethyl-N-(4-oxo-4-piperazin-1-yl-butyl)benzamide] | 290 | –
20 | COc1ccc(-c2cnc3c(Nc4ccc(C(=O)N(C)CC(=O)N5CCNCC5)c(C)c4)nccn23)cc1F [Example 5, hydrochloride] | 650 | –
21 | COc1ccc(-c2cnc3c(Nc4ccc(C(=O)N(C)CC(=O)N5CCNC(=O)C5)c(C)c4)nccn23)cc1F [Example 6] | – | 640
22 | COc1ccc(-c2cnc3c(Nc4ccc(C(=O)N(C)CC(=O)N(C)C)c(C)c4)nccn23)cc1F [Example 7, N-[2-(dimethylamino)-2-oxo-ethyl]-4-[[3-(3-fluoro-4-methoxy-phenyl)imidazo[1,2-a]pyrazin-8-yl]amino]-N,2-dimethyl-benzamide] | – | 1900
23 | COc1ccc(-c2cnc3c(Nc4ccc(C(=O)N(C)CC(=O)N5CCOCC5)c(C)c4)nccn23)cc1F [Example 8, 4-[[3-(3-fluoro-4-methoxy-phenyl)imidazo[1,2-a]pyrazin-8-yl]amino]-N,2-dimethyl-N-(2-morpholino-2-oxo-ethyl)benzamide] | – | 2000
24 | COc1ccc(-c2cnc3c(Nc4ccc(C(=O)N(C)CC(=O)N5CCC(CN(C)C)C5)c(C)c4)nccn23)cc1F (stereo not shown) [Example 9, N-[2-[3-[(dimethylamino)methyl]pyrrolidin-1-yl]-2-oxo-ethyl]-4-[[3-(3-fluoro-4-methoxy-phenyl)imidazo[1,2-a]pyrazin-8-yl]amino]-N,2-dimethyl-benzamide] | – | 840
25 | COc1ccc(-c2cnc3c(Nc4ccc(C(=O)NCCCCCCN)c(C)c4)nccn23)cc1 [Example 10, N-(6-aminohexyl)-4-((3-(4-methoxyphenyl)imidazo [1,2-a]pyrazin-8-yl)amino)-2-methylbenzamide hydrochloride] | – | 110

From US20230012368A1 (Hoffmann-La Roche Inc., priority 2018, published 2023)
